Earlier results on four compounds are cited in publication PMC5356695, “A phase 1 study of oral ridaforolimus in pediatric patients with advanced solid tumors” (Oncotarget, 2016).

Data set [1] concerns children with refractory solid tumors. More on the design: method as in PMID 17947729. The note with it: cited from earlier work.
Data set [2] relates to in vivo solid tumor models. More on the design: method as in PMID 17635004. The note with it: cited from earlier work.
Data set [3] has as its system children with recurrent or refractory solid tumors. The arrangement: method as in PMID 21690471. The note with it: highest dose tested 150 mg/m^2, once weekly; cited from earlier work.
Data set [4] relates to neuroblastoma and high-grade glioma. The arrangement: method as in PMID 22033322. The note with it: single-agent therapy; cited from earlier work.
For data set [5], the system named is pediatric patients with advanced solid tumors. More on the design: method as in PMID 27185573. The note with it: dalotuzumab alone; cited from earlier work.

In the case of `CO[C@H]1C[C@@H]2CC[C@@H](C)[C@@](O)(O2)C(=O)C(=O)N2CCCC[C@H]2C(=O)O[C@H]([C@H](C)C[C@@H]2CC[C@@H](OCCO)[C@H](OC)C2)CC(=O)[C@H](C)/C=C(\C)[C@@H](O)[C@@H](OC)C(=O)[C@H](C)C[C@H](C)/C=C/C=C/C=C/1C` [everolimus], the RP2D in data set [1] (children, oral) is recorded as 5 mg/m^2. For the same compound, the “Patients with DLTs (grade 3 increased ALT, mucositis, diarrhea)” value in data set [1] (highest dose of 6.5 mg/m^2, oral) is 3 of 3. Take `CO[C@H]1C[C@@H]2CC[C@@H](C)[C@@](O)(O2)C(=O)C(=O)N2CCCC[C@H]2C(=O)O[C@H]([C@H](C)C[C@@H]2CC[C@@H](O)[C@H](OC)C2)CC(=O)[C@H](C)/C=C(\C)[C@@H](O)[C@@H](OC)C(=O)[C@H](C)C[C@H](C)/C=C/C=C/C=C/1C` [rapamycin]: in data set [2], the “Models with significant differences in event-free survival distributions compared with controls” value is 27 of 36. Take `CO[C@H]1C[C@@H]2CC[C@@H](C)[C@@](O)(O2)C(=O)C(=O)N2CCCC[C@H]2C(=O)O[C@H]([C@H](C)C[C@@H]2CC[C@@H](OC(=O)C(C)(CO)CO)[C@H](OC)C2)CC(=O)[C@H](C)/C=C(\C)[C@@H](O)[C@@H](OC)C(=O)[C@H](C)C[C@H](C)/C=C/C=C/C=C/1C` [temsirolimus]: the “Patients with DLT (grade 3 anorexia)” value in data set [3] is recorded as 1 of 7. Further, in data set [4], the Disease stabilization result is recorded as “Prolonged stable disease was observed”.

As to “dalotuzumab: anti-IGF1R monoclonal antibody”, the “Patients with confirmed partial response” value in data set [5] is reported as 1 of 20.
